We go through two compounds from patent US20150133664A1, “CHEMICAL TRANS[…] (-)-CODEINE TO AFFORD DERIVATIVES OF CODEINE AND MORPHINE THEREOF” (BOARD OF REGENTS, THE UNIVERSITY OF TEXAS SYSTEM, priority 2012, published 2015).

Molecules are shown by their SMILES.

The assay can be described thus: potency compared with codeine and morphine (test not described). Conditions: no assay, value or method printed.

In the case of `COc1ccc2c3c1O[C@H]1C(O)[C@H](C)C[C@H]4[C@@H](C2)N(C)CC[C@]314` (stereo partly drawn) [Compound 8, 7β-Methyl-7,8-dihydrocodeine], the “potency compared with codeine” value (compared with codeine) is “increased potency”. As to `C[C@@H]1C[C@H]2[C@H]3Cc4ccc(O)c5c4[C@@]2(CCN3C)[C@@H](O5)C1O` (stereo partly drawn) [Compound 9, 7β-Methyl-7,8-dihydromorphine], the “potency compared with morphine” value (compared with morphine) was “increased potency”.
